Test results reported in patent publication US7449495B2, “Retinoid derivatives with antiangiogenic, antitumoral and proapoptotic activities” (Sigma-Tau Industrie Farmaceutiche Riunite S.p.A., priority 2001, dated 2008).

Legend:
[1] = system: Human prostate carcinoma DU145; test: Cytotoxicity test (sulphorodamine B), DU145; format: cell-based; settings: DU-145, 24 h incubation, survival 48 h after removal
Excerpt: (§1) Different cell lines deriving from solid tumors were also used. • 1. Human prostate carcinoma PC3 and DU145. These cell lines were maintained in RPMI 1640 medium containing 10% FCS, 1% sodium pyruvate and 1% glutamine; • 2. Human colon adenocarcinoma LoVo. This cell line was maintained in HAM's F-12 medium, containing 10% FCS and 1% glutamine. • 3. Human ovarian carcinoma such as A2780 and A2780/Dx, sensitive and resistant to drugs, respectively (doxorubicin, taxol, etoposide, vincristine); IGROV-1 and IGROV-1/Pt, sensitive and resistant to platinum-based chemotherapy, respectively, were maintained in RPMI 1640 medium containing 10% FCS, 1% sodium pyruvate and 1% glutamine; • 4. Human melanoma MeWo and MeS 2.21, glioblastoma GBM, no small cell lung carcinomas A431, NCI—H460, osteosarcomas SAOS and U2OS were maintained in RPMI 1640 medium containing 10% FCS, 1% sodium pyruvate and 1% glutamine.
(§2) The cytotoxicity tests were carried out using NB4 or HL-60 cells in suspension (10000/well). The cells were seeded in a volume of 250 μl in 96 well plates and incubated for 24 hours at 37° C. […] The optical density was measured using a Multiskan spectrophotometer at 540 nm. […]
(§3) Cell survival was determined by incubation with ST1926 for 24 hours, 48 hours after the removal of the compound. […]

[2] = system: no small cell lung carcinoma A431; test: Cytotoxicity test (sulphorodamine B), A431; format: cell-based; settings: Homo sapiens, A-431, 24 h incubation, survival 48 h after removal
Excerpt: as §1, §2, §3

[3] = system: A2780/Dx multidrug-resistant human ovarian carcinoma cells; test: Cytotoxicity in combination with TRAIL, A2780/Dx; format: cell-based; settings: 72 hours, value >1 synergism (FIG. 1)
Description: FIG. 1 is a graph showing the interaction between ST1926 and TRAIL in A2780/Dx multidrug-resistant human ovarian carcinoma cells at different concentrations of TRAIL.
A study of cytotoxicity of ST1926 in combination with TRAIL was performed in two different tumor cell lines such as M109 murine lung carcinoma and A2780/Dx multidrug-resistant human ovarian carcinoma. Cells were maintained in RPMI 1640 medium containing 10% FCS, 1% sodium pyruvate and 1% glutamine.
The cells were seeded in a volume of 250 μl in 96 well plates and incubated for 24 hours at 37° C. The following day, test compound ST 1926 [(2E)-3-[3′-(1-Adamantyl)-4′-hydroxy[1,1′-biphenyl]-4-yl]-2-propenoate/ic acid] or TRAIL were added at increasing concentrations, and the cells were incubated for a further 72 hours at 37° C. in a humidified atmosphere containing 5% CO2. On the 5th day, the supernatant was removed by upturning the plates. 200 μl of PBS and 50 μl of cold, 80% TCA were added. The plates were then left to incubate on ice for at least 1 hour. The TCA was removed by upturning; the plates were washed three times by immersion in distilled water and dried first on paper, then with a jet of hot air. […] The optical density was measured using a Multiskan spectrophotometer at 540 nm.
The interaction between ST1926 and TRAIL was determined by using the analysis of Drewinko et al. (Cancer Biochem. Biophys. 1: 187-195, 1976). […]

[4] = system: human no small cell lung carcinoma NCI-H460; test: Antitumoral activity in human no small cell lung carcinoma model NCI-H460; format: in vivo; settings: NCI-H460, 15 mg/kg po
Description: The ST1926 solution was prepared immediately before use and solubilised in cremophor:ethanol 1:1 and subsequently diluted 1:4 in buffered saline solution. The animal treatments were administered in a volume of 10 ml/kg. […] Measurements of tumor dimensions were performed using a digital calliper (Vernier Caliper) twice weekly, from the time in which the mass was measurable. The tumor mass was evaluated from the size of the two principal dimensions (length and breadth), expressed in mm, applying the formula (length×breadth^2)/2, that is, the tumor volume in mm3. For each experimental group, the percentage of tumor volume inhibition was calculated (TVI %), with respect to the control, namely (100−(T/C %). TVI was evaluated 2 days after the final administration of ST1926.
A comparison between the TVI values obtained for each group was performed using the non parametric Mann Whitney test for non-paired data, using the Instat software from GraphPad inc.

[5] = system: vitamin-A deficient hamster trachea in organ culture; settings: cited from earlier work

O=C(O)/C=C/c1ccc(-c2ccc(O)c(C34CC5CC(CC(C5)C3)C4)c2)cc1 [ST1926, E-4-(3-(1-adamantyl)-4-hydroxyphenyl)cinnamic acid]
IC50 [1]: 100 nM | IC50 [2]: 250 nM | interaction between ST1926 and TRAIL (analysis of Drewinko et al.) [3]: synergic activity | BWL % Max ([4]; qdx3x3w): 4% | Lethality ([4]; qdx3x3w): 0/8 | TVI % ± SE ([4]; qdx3x3w): *52 ± 7% | BWL % Max ([4]; qdx4x3w): 14% | Lethality ([4]; qdx4x3w): 0/8 | TVI % ± SE ([4]; qdx4x3w): **38 ± 8% | BWL % Max ([4]; qdx5x3w): 4% | Lethality ([4]; qdx5x3w): 0/8 | TVI % ± SE ([4]; qdx5x3w): *40 ± 2% | activity in the TOC assay compared with compound 1 (in words) [5]: lower activities
